Measured values: PMC5653977 (EMBO Molecular Medicine, 2017)

Columns and labels:
[1] = mouse, in vivo
Procedure: (§1) Treatment was continued throughout the behavioral analysis period. To avoid injection‐induced stress prior to behavioral testing, mice were injected in the afternoon, after the entire cohort has completed the behavioral paradigm.

Nrg1-tg and wt mice [2] = test: Light-dark preference test; assay type: in vivo, mouse; conditions: 50 mg/kg s.c. daily
Procedure: (§2) For behavioral testing, age‐matched male mice (8–16 weeks) on C57Bl/6 background that constitutively overexpress the 2xHA‐tagged Nrg1 type III β1a isoform (Nrg1‐tg) under the control of the mouse Thy1.2 promoter (Velanac et al, 2012) and their wild‐type (wt) littermates as controls were used. Animals were group‐housed in the same ventilated sound‐attenuated rooms under a 12‐h light/12‐h dark schedule (lights on at 8:00 am) at an ambient temperature of 21°C with food and water available ad libitum. One week prior to experiments, mice were separated into single cages and habituated to the experimental rooms. To minimize the influence of the circadian rhythm on drug actions, the treatment groups were analyzed at balanced time points during the light phase. […] All animal experiments were conducted in accordance with NIH principles of laboratory animal care and were approved by the Government of Lower Saxony, Germany, in accordance with the German Animal Protection Law.
as §1

Nrg1-tg and wt mice [3] = test: Hot plate test; assay type: in vivo, mouse; conditions: 50 mg/kg s.c. daily
Procedure: as §2, §1

PC12 cells = test: Renilla luciferase readings as toxicity control in dose-response assay; assay type: cell-based; conditions: dose-response co-culture assay, Nrg1 type I β1a, 24 h
Text: For our HTS‐compatible split TEV assay approach, human full‐length ERBB4‐Cyt1 was fused to the NTEV fragment, a TEV protease cleavage site (tevS) and the artificial co‐transcriptional activator Gal4‐VP16 (ERBB4‐NTEV‐tevS‐GV); human PIK3R1 was fused to the CTEV fragment (PIK3R1‐CTEV) (Fig 1A). Upon ERBB4 activation, PIK3R1 is recruited to the receptor resulting in a reconstituted protease activity that cleaves off GV. In turn, released GV translocates to the nucleus and binds to upstream activating sequences (UAS) to activate the transcription of a firefly luciferase reporter gene (Fig 1A). A constitutively expressed Renilla luciferase driven under the control of the human thymidine kinase (TK) promoter was used as control to address off‐target effects related to toxicity.

Nrg1-tg and wt mice [4] = test: Prepulse inhibition (PPI); assay type: in vivo, mouse
Procedure: as §2, §1
The startle response was measured using a two test cabinet (SR‐LAB, San Diego Instruments) using a protocol as described in Brzózka et al (2010).

Nrg1-tg and wt mice [5] = test: Open field test; assay type: in vivo, mouse; conditions: 50 mg/kg s.c. daily
Procedure: as §2, §1
Spontaneous locomotor activity was verified in the open‐field test using a Plexiglas box (45 × 45 × 55 cm). The same test arena was modified with a floor insert containing 16 symmetrically allocated holes for the hole board test. During a 10‐min testing session, mouse behavior was monitored by infrared sensors and recorded by the ActiMot software (TSE, Bad Homburg, Germany). Levels of urination (scored in events) and defecation (scored as feci in events) were determined manually during the open‐field test.

TEV protease = molecular target: T1, TEV protease (Tobacco etch virus, UniProt P04517); test: TEV protease activity control assay (TM-TEV/TM-tevS-GV); assay type: cell-based; conditions: TM-TEV, TM-tevS-GV and 10×UAS-Fluc in PC12 cells
T1 construct: a transmembrane‐localized TEV protease (TM‐TEV) was expressed in PC12 cells; expressed in transfected cells; host or cells: PC12 Tet-Off cells (rat)
Text: All counts (407 compounds and 96 controls) from the Nrg1‐ERBB4‐PIK3R1 split TEV compound screen were plotted against the z‐score using Mondrian, with pathway activators displaying high values and inhibitors low values. For the secondary analysis, we selected all candidates that were at least three standard deviations away from the mean. […] For the GAL4/UAS assay, GAL4‐VP16 (GV) and 10×UAS firefly luciferase (10×UAS‐Fluc) plasmids were transfected into PC12 cells. For TEV protease activity assays, a transmembrane‐localized TEV protease (TM‐TEV) was expressed in PC12 cells with a transmembrane‐localized and TEV‐cleavable GV (TM‐tevS‐GV) and the 10×UAS‐Fluc reporter. […] EGFld was applied as Nrg1 stimulus. In both control assays, the assay activity (firefly luciferase, black lines) was similar to the toxicity levels (gray lines). Data are shown as mean, a nd error bars represent SEM, n = 6. The insets depict IC50 values in μM.

[6] = design: method as in Zhou et al, 2011; Rimmele et al, 2013; conditions: acute administration; ref Zhou et al, 2011; Rimmele et al, 2013; cited from earlier work
ERBB4 = ERBB4 (Homo sapiens, UniProt Q15303); test: Western blot of ERBB4 phosphorylation in T-47D cells; conditions: 10 ng/ml EGFld, 10 μM compound, 5 min
[7] = molecular target: EGFR-NTEV-tevS-GV + ERBB2-CTEV (Homo sapiens, UniProt P00533+P04626); test: ERBB dimerization split TEV assay EGFR/ERBB2; assay type: cell-based; conditions: 10 ng/ml EGFld
Text: Gateway recombination cloning (Life Technologies) was applied for generating plasmids. Each ORF cloned was PCR‐amplified using the Pwo proofreading DNA polymerase (Roche) and BP‐recombined into the pDONR/Zeo plasmid (Life Technologies) to yield an entry vector, which was control‐digested using BsrGI to release the insert, and sequence‐verified. The following human ORFs were cloned using cDNA image clones ordered from Source BioScience: ERBB4 transcript variant JM‐a/CYT‐1 (Accession: BC112199), PIK3R1 (BC094795), GRB2 transcript variant 1 (BC000631), SHC1 transcript variant 2 (BC014158), STAT5A (BC027036), and SRC transcription variant 1 (BC051270). For EGFR, ERBB2, and ERBB3, entry vectors were obtained from the human CCSB kinase collection available from Addgene (Johannessen et al, 2010). Entry vectors were LR‐recombined into split TEV destination vectors [either pcDNA_attR1‐ORF‐attR2‐NTEV‐tevS‐GV‐2xHA_DEST or pTag4C_attR1‐ORF‐attR2‐CTEV‐2xHA_DEST, plasmids were described in detail before (Wehr et al, 2006)] to yield expression vectors, which were control‐digested using BsrGI. The plasmids for Nrg1 type I β1a and rat Nrg1 type III β1a have been described before (Wehr et al, 2006).

[8] = 50 mg/kg s.c. daily for 3 weeks and throughout phenotyping, vs vehicle
[9] = before vs after chronic treatment, 50 mg/kg s.c. daily

EGFR-NTEV-tevS-GV + ERBB2-CTEV, sequence (P00533 25-1210): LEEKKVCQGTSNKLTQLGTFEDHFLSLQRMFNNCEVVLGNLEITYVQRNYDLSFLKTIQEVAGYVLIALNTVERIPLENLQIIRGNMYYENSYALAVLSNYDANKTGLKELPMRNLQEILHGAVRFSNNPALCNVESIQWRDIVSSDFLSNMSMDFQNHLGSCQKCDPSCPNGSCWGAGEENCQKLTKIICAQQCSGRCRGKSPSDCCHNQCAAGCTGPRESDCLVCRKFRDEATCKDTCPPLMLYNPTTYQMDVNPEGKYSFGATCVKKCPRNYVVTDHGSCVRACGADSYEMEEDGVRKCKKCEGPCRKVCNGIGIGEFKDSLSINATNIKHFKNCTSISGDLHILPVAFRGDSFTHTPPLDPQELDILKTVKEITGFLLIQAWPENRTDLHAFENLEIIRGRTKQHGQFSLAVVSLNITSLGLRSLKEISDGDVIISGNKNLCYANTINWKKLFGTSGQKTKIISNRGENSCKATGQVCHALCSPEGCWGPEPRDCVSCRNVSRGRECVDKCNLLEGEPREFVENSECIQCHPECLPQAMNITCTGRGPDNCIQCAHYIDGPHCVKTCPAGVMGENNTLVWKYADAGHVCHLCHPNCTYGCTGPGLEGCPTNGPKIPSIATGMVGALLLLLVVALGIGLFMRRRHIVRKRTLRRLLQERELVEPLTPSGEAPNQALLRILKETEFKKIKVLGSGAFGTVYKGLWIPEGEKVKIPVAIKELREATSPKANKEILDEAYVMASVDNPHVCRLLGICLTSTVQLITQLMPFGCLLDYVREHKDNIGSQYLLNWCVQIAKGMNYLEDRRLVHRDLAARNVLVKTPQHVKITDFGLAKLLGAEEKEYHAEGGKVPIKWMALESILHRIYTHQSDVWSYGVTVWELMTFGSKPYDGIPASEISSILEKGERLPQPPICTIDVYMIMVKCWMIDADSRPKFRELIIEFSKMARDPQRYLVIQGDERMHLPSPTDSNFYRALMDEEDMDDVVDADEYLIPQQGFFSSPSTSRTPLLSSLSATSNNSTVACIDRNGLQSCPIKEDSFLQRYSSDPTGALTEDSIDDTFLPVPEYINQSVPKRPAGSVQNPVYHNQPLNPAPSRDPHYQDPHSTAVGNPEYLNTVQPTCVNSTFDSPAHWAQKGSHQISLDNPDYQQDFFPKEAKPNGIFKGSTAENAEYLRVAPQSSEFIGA
EGFR-NTEV-tevS-GV + ERBB2-CTEV, sequence (P04626 23-1255): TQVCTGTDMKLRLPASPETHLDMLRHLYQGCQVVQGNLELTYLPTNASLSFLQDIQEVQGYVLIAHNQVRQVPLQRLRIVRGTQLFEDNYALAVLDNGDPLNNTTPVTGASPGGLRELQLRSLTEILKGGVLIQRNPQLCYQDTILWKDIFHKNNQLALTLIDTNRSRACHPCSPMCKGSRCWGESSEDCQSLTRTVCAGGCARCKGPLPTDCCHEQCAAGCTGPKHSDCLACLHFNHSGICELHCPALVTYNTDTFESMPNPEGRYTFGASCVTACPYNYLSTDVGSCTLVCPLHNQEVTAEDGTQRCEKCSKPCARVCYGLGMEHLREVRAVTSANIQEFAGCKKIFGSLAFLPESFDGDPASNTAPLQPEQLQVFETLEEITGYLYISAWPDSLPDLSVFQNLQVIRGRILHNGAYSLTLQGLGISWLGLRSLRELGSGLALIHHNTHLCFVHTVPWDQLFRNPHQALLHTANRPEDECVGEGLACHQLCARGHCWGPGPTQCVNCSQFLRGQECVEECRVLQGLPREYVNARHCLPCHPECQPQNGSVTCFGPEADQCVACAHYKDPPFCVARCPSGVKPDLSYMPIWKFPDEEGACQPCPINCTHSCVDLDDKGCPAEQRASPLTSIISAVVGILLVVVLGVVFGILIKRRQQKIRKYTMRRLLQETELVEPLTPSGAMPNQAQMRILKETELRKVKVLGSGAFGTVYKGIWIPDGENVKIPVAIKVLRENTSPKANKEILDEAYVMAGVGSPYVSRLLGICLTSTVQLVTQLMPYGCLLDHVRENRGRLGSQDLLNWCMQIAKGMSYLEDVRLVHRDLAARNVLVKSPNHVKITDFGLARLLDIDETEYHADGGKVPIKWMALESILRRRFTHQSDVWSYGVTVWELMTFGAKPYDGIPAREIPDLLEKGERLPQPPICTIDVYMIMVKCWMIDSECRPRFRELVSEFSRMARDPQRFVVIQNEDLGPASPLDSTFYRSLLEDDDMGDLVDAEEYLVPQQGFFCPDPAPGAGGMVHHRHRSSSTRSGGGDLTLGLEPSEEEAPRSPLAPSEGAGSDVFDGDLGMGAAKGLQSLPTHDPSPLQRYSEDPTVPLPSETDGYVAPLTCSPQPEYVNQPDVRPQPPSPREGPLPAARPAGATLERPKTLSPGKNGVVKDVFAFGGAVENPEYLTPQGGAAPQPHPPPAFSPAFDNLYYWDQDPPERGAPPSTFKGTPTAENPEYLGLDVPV
T1 sequence (P04517 2038-2279): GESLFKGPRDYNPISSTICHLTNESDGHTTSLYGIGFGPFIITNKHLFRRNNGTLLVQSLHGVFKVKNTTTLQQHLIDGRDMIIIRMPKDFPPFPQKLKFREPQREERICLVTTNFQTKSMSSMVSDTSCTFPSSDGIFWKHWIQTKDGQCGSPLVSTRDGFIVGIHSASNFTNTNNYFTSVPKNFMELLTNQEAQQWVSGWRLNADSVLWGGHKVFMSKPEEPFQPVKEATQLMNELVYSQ
ERBB4, sequence (Q15303 26-1308): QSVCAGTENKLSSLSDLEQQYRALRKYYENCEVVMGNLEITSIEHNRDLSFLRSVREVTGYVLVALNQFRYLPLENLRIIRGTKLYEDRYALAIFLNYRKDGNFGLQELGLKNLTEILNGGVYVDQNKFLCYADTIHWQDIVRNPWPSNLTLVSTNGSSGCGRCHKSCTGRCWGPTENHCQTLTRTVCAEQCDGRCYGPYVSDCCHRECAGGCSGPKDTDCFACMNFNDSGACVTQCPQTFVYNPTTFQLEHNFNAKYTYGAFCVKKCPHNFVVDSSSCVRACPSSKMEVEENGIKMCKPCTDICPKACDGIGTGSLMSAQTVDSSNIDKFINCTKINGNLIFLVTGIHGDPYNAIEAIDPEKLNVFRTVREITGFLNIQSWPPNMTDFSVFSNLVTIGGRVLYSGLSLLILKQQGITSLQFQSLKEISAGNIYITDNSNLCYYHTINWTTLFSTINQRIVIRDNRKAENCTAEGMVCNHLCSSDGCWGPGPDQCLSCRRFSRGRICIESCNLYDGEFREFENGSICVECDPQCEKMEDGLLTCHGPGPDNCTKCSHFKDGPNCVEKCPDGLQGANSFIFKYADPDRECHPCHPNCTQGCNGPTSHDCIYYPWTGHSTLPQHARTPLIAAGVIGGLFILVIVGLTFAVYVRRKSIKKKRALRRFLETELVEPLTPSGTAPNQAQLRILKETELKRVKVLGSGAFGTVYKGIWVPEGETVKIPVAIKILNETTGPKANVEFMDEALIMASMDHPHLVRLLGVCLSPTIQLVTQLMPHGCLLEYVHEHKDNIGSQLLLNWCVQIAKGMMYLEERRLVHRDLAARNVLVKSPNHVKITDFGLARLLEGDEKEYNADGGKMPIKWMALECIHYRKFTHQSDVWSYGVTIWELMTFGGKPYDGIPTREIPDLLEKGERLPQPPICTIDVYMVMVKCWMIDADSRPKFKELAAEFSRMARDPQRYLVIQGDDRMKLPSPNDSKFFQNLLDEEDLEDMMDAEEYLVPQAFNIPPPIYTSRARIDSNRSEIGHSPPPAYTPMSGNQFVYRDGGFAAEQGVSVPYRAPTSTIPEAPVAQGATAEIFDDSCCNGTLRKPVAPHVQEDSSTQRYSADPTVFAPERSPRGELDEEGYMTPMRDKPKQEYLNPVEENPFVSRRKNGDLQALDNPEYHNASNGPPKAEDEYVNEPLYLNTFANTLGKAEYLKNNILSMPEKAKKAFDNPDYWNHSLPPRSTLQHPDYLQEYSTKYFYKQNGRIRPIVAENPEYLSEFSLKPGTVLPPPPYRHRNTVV

CC(=O)S[C@@H]1CC2=CC(=O)CC[C@]2(C)[C@H]2CC[C@@]3(C)[C@@H](CC[C@@]34CCC(=O)O4)[C@H]12 [Spironolactone]
side effect in treated mice [1]: no major side effect
time in the light compartment (Nrg1-tg and wt mice [2]): spent more time in the light compartment
pain sensitivity (latency to the first reaction, hot plate 52°C) (Nrg1-tg and wt mice [3]): significantly decreased levels of pain sensitivity
toxic effects (reduced Renilla luciferase readings) (PC12 cells): marginal toxic effects at higher concentrations
PPI in Nrg1-tg mice, four-arm study (Nrg1-tg and wt mice [4]; [8]): significantly enhanced
PPI in wt mice, four-arm study (Nrg1-tg and wt mice [4]; [8]): did not influence PPI
PPI in Nrg1-tg mice, pilot two-arm study (Nrg1-tg and wt mice [4]; [9]): significantly improved
PPI in wt controls, pilot two-arm study (Nrg1-tg and wt mice [4]; [9]): had no effect
defecation in the open-field test (Nrg1-tg and wt mice [5]): no effect of treatment observed
time in the center of the open-field arena (Nrg1-tg and wt mice [5]): did not influence this parameter
urination in the open-field test (Nrg1-tg and wt mice [5]): without effect of treatment
locomotor hyperactivity (distance in the open-field arena) (Nrg1-tg and wt mice [5]; Nrg1-tg mice): reverted
effect on activity of the TEV protease (TEV protease): does not affect activities of control assays
memory retrieval in healthy human volunteers [6]: reduced memory retrieval
ERBB4 phosphorylation at Tyr1056 and Tyr1284 (ERBB4): reduced phosphorylation to intermediate levels
IC50 [7]: 4.66 µM
